Data reported in patent US6710056B2, “Amidinophenylpyruvic acid derivatives” (Ajinomoto Co., Inc., priority 1999, dated 2004).
Where a name gives a salt, the structure may show the parent alone.

Experiments:
[1] = target: T1, activated human blood coagulation factor VII (Homo sapiens, UniProt P08709); assay: Determination of antagonistic activity to activated human blood coagulation factor VII; assay type: biochemical; conditions: FVIIa mixed with tissue factor, substrate S-2288, pH 7.4, initial velocity; read-out: Antagonistic activity to activated blood coagulation factor VII (pIC50 ) (converted)
T1 construct: purchased Enzyme Research Laboratories Ltd. (FVIIa); American Diagnostica Laboratories Ltd. (tissue factor)
Experimental: Determination of antagonistic activity to activated human blood coagulation factor VII:
100 nM solution of activated human blood coagulation factor VII (Enzyme Research Laboratories Ltd.) in pH 7.4 tris hydrochloride buffer solution was mixed with 100 nM solution of a tissue factor (American Diagnostica Laboratories Ltd.) in pH 7.4 tris hydrochloride buffer solution in equal amounts, and the obtained mixture was left to stand at room temperature for 30 minutes. 50 μl of 50 mM tris hydrochloride buffer solution having a pH adjusted to 7.4 was added to 5 μl of an aqueous solution of a compound to be tested. Then 10 μl of the previously prepared mixture of 50 nM of each of the solutions of activated human blood coagulation factor VII and tissue factor was added to the obtained mixture, and they were incubated at room temperature for 10 minutes. Then 25 μl of 3.2 mM solution of D-isoleucyl-L-prolyl-L-arginyl-P-nitroanilide hydrochloride (S-2288, Daiichi Pure Chemicals Co., Ltd.) in pH 7.4 tris hydrochloride buffer was added to the obtained mixture. The absorbance was determined and the initial reaction velocity was calculated. A control was prepared by using 5 μl of tris hydrochloride buffer adjusted to pH 7.4 in place of the solution of the compound to be tested. The absorbance was determined with MICROPLATE READER Model 3550-UV (BIO RAD) at a wavelength of 405 nm at intervals of […]. The negative logarithm (pIC50) of the concentration of the sample compound for the 50% inhibition of the activity (initial velocity) of the activated blood coagulation factor VII was determined, and it was employed as the index of the antagonistic activity to the activated blood coagulation factor VII.

human thrombin = target: T2, human thrombin (Homo sapiens, UniProt P00734); assay: Determination of antagonistic activity to human thrombin; assay type: biochemical; conditions: substrate S-2238, pH 8.4, initial velocity, read-out: Antagonistic activity to thrombin (pIC50) (converted)
T2 construct: solution of human thrombin (SIGMA Co. Ltd.); purchased SIGMA Co. Ltd
Experimental: (2) Determination of Antagonistic Activity to Human Thrombin:
130 μl of 100 mM tris hydrochloride buffer adjusted at pH 8.4 was added to 10 μl of an aqueous solution of a sample compound having antagonistic activity to human thrombin. Then 10 μl of a solution of human thrombin (SIGMA Co. Ltd.) adjusted to 2 units/ml with pH 8.4 tris hydrochloride buffer was added to the obtained mixture, and they were incubated at room temperature for 10 minutes. 50 μl of a 0.4 mM solution of D-phenylalanyl-L-pipecolyl-L-arginyl-P-nitroanilide dihydrochloride (S-2238, Daiichi Pure Chemicals Co., Ltd.) in pH 8.4 tris hydrochloride buffer was added to the obtained mixture. The absorbance was determined and the initial reaction velocity was calculated. A control was prepared by using 10 μl of tris hydrochloride buffer adjusted to pH 8.4 in place of the solution of the compound to be tested. The absorbance was determined with MICROPLATE READER Model 3550-UV (BIO RAD) at a wavelength of 405 nm at intervals of 15 seconds for 6 minutes. The negative logarithm (pIC50) of the concentration of the sample compound for the 50% inhibition of the activity (initial velocity) of thrombin was determined, and it was employed as the index of the antagonistic activity to thrombin.

T1 sequence (P08709 213-466 limits assumed): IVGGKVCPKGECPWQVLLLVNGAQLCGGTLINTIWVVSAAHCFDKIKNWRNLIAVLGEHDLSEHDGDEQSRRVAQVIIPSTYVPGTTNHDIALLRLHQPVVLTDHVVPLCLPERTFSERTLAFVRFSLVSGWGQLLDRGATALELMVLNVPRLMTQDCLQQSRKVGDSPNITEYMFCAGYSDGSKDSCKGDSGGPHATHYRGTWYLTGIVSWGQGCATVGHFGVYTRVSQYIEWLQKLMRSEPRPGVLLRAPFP
T1 sequence (P08709 61-212 limits assumed): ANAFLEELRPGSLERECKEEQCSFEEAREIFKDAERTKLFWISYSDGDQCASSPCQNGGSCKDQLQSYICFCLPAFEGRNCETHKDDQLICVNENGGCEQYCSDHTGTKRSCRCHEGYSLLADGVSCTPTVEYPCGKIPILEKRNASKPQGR
T1 sequence (P13726 33-295 partner): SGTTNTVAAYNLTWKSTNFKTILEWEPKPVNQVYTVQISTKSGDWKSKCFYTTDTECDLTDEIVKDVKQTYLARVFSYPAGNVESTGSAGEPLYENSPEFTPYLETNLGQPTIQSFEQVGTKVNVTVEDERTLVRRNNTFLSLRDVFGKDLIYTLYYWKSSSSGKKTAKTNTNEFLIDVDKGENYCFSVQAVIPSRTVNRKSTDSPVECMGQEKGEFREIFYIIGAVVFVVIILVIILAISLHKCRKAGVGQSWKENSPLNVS

IC50 [1] [nM] | IC50 (human thrombin) [nM] | Compound
126 | > 100000 | N=C(N)c1ccc(CC(=O)C(=O)O)c(OC[C@@H](CCC(=O)O)NC(=O)c2ccc3nc(N)ccc3c2)c1 [Compound of Ex. 1, (4R)-4-[(2-Aminoquinoline-6-carbonyl)amino]-5-[5-amidino-2-(2-carboxy-2-oxoethyl)phenoxy]pentanoic acid bistrifluoroacetate]
316 | 31600 | N=C(N)c1ccc(CC(=O)C(=O)O)c(OCCNC(=O)c2ccc3nc(N)ccc3c2)c1 [Compound of Ex. 2, 3-[4-Amidino-2-[2-(2-aminoquinoline-6-carbonyl)aminoethoxy]phenyl]-2-oxopropionic acid bistrifluoroacetate]
200 | > 100000 | Cc1nc2ccc(C(=O)N[C@H](CCC(=O)O)COc3cc(C(=N)N)ccc3CC(=O)C(=O)O)cc2[nH]1 [Compound of Ex. 4, (4R)-4-[(2-Methylbenzimidazole-5-carbonyl)amino]-5-[5-amidino-2-(2-carboxy-2-oxoethyl)phenoxy]pentanoic acid bistrifluoroacetate]
50.1 |  | COc1ccc(-c2ccccc2)cc1C(=O)N[C@H](CCC(=O)O)COc1cc(C(=N)N)ccc1CC(=O)C(=O)O [Compound of Ex. 27, (4R)-4-(2-Methoxy-5-phenylbenzoylamino)-5-[5-amidino-2-(2-carboxy-2-oxoethyl)phenoxy]pentanoic acid trifluoroacetate]

Further lines, the molecule ahead of its results:

Compound | IC50 [1] [nM] | IC50 (human thrombin) [nM]
N=C(N)c1ccc(-c2cccc(C(=O)N[C@H](CCC(=O)O)COc3cc(C(=N)N)ccc3CC(=O)C(=O)O)c2)cc1 [Compound of Ex. 13, (4R)-4-[[3-(4-Amidinophenyl)benzoyl]amino]-5-[5-amidino-2-(2-carboxy-2-oxoethyl)phenoxy]pentanoic acid bistrifluoroacetate] | 100 | 7940
N=C(N)Nc1ccc(C(=O)N[C@H](CCC(=O)O)COc2cc(C(=N)N)ccc2CC(=O)C(=O)O)cc1 [Compound of Ex. 23, (4R)-4-[(4-Guanidinobenzoyl)amino]-5-[5-amidino-2-(2-carboxy-2-oxoethyl)phenoxy]pentanoic acid bistrifluoroacetate] | 251 | > 100000
N=C(N)c1ccc(CC(=O)C(=O)O)c(OC[C@@H](CCC(=O)O)NC(=O)c2ccc3nc(N)sc3c2)c1 [Compound of Ex. 28, (4R)-4-[(2-Aminobenzothiazole-6-carbonyl)amino]-5-[5-amidino-2-(2-carboxy-2-oxoethyl)phenoxy]pentanoic acid trifluoroacetate] | 5.01 | > 100000
N=C(N)c1ccc(CC(=O)C(=O)O)c(OCCNC(=O)c2ccc3nc(N)sc3c2)c1 [Compound of Ex. 39, 3-[4-Amidino-2-[2-(2-amino-benzothiazole-6-carbonyl)aminoethoxy]phenyl]-2-oxo-propionic acid trifluoroacetate] | 20 | 39800
N=C(N)c1ccc(CC(=O)C(=O)O)c(OC[C@@H](CCC(=O)O)NC(=O)c2cc3c(cc2Br)CCO3)c1 [Compound of Ex. 45, (4R)-4-[(5-Bromo-2,3-dihydrobenzo[b]furan-6-carbonyl)amino]-5-[5-amidino-2-(2-carboxy-2-oxoethyl)phenoxy]pentanoic acid trifluoroacetate] | 100 | 
